From patent US20150368248A1, “2-SUBSTITUTED-6-BIARYLMETHYLAMINO-9-CYCLOPENTYL-9H-PURINE DERIVATIVES, USE THEREOF AS MEDICAMENTS, AND PHARMACEUTICAL COMPOSITIONS” (UNIVERZITA PALACKEHO V OLOMOUCI, priority 2013, published 2015)
Read-outs that look alike come from different tables or passages of the source.

How the values were obtained:
[1] = system: Hep3B; assay: MTT cytotoxicity assay (Example 30); format: cell-based, human; details: Homo sapiens, Hep3B, 72 h; MTT, three days after drug addition; read-out: Inhibitory concentration IC50, Hep3B
[2] = target: T1, CDK5/p35 (Homo sapiens, UniProt Q00535); assay: Kinase inhibition assay, recombinant kinase, [γ-33P]ATP; format: biochemical; details: read-out: Residual kinase activity, CDK5; for remaining activity at 0.1 µM: 100 nM; for remaining activity at 1 µM: 1000 nM
T1 construct: purchased ProQinase GmbH (Freiburg, Germany)
Method: (§1) CDK2/Cyclin E kinase was produced in Sf9 insect cells via baculoviral infection and purified on a NiNTA column (Qiagen). CDK5/p35, CDK7Cyclin H/MAT1 and CDK9/Cyclin T1 was purchased from ProQinase GmbH. The kinase reactions were assayed with 1 mg/mL histone H1 (for CDK2 and CDK5) or (YSPTSPS)2KK peptide (for CDK7 and CDK9) in the presence of 15/0.15/1.5/1.5 μM ATP (for CDK2/CDK5/CDK7CDK9), 0.05 μCi [γ-^33P]ATP and of the test compound in a final volume of 10 μL, all in a reaction buffer (60 mM HEPES-NaOH, pH 7.5, 3 mM MgCl2, 3 mM MnCl2, 3 μM Na-orthovanadate, 1.2 mM DTT, 2.5 μg/50 μl PEG20,000). The reactions were stopped by adding 5 μL of 3% aq H3PO4. Aliquots were spotted onto P-81 phosphocellulose (Whatman), washed 3× with 0.5% aq H3PO4 and finally air-dried.
(§2) CDK1/cyclin B and CDK2/cyclin E kinases were produced in Sf9 insect cells via baculoviral infection, while CDK5/p35, CDK7/cyclin H/MAT1, and CDK9/cyclin T1 were purchased from ProQinase (Freiburg, Germany) and assayed as described previously (35). The kinase reactions were assayed with 1 mg/ml histone H1 (for CDK2 and CDK5) or (YSPTSPS)2KK peptide (for CDK7 and CDK9) in the presence of 15/0.15/1.5/1.5 […] ATP (for CDK2/CDK5/CDK7CDK9), […] [γ-^33P]ATP and of the test compound in a final volume of […]. The reaction buffer contained 60 mM HEPES-NaOH, pH 7.5, 3 mM MgCl2, 3 mM MnCl2, 3 mM Na-orthovanadate, 1.2 mM DTT, 2.5 mg/50 ml PEG20.000. The reactions were stopped by adding […] of 3% H3PO4. Aliquots were spotted onto P-81 phosphocellulose (Whatman, GE Healthcare Biosciences, Pittsburgh, USA), washed 3 times with 0.5% H3PO4 and finally air-dried. Kinase inhibition was quantified using a FLA-7000 digital image analyzer (Fujifilm, Tokyo, Japan).

[3] = target: T2, CDK9/Cyclin T1 (Homo sapiens, UniProt P50750); assay: as above; format: biochemical; details: for remaining activity at 0.1 µM: 100 nM; for remaining activity at 0.1 µM / remaining activity at 1 µM: read-out: Residual kinase activity, CDK9; for remaining activity at 1 µM: 1000 nM
T2 construct: purchased ProQinase GmbH (Freiburg, Germany)
Method: as §1, §2

[4] = target: T3, CDK7/cyclin H/MAT1 (Homo sapiens, UniProt P50613); assay: as above; format: biochemical; details: read-out: Residual kinase activity, CDK7; for remaining activity at 0.1 µM: 100 nM; for remaining activity at 1 µM: 1000 nM
T3 construct: purchased ProQinase GmbH (Freiburg, Germany)
Method: as §1, §2

[5] = system: human umbilical vein endothelial cells (HUVEC); assay: HUVEC proliferation, Calcein AM; format: cell-based; details: Homo sapiens, HUVEC, read-out: Inhibitory concentration for HUVEC cells - IC50
In short: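 Confluent HUVECs seeded in 96-well plates and exposed to compound for 24 or 72 h. Proliferation read by Calcein AM fluorescence.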

[6] = system: caspase-3/7 activity in PLC/PRF/5 cell line; assay: One-step cellular caspase-3/7 activity assay; format: cell-based, human; details: 24 hours incubation, relative to 0 nM = 1.00
In short: (§3)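 Hep3B or PLC/PRF/5 cells, plated overnight, were exposed to compounds for 24 h. Lysis buffer containing 150 μM Ac-DEVD-AMC substrate was added, and plates were incubated at 37° C. Caspase-3/7 activity was read as AMC fluorescence (ex 346/em 442 nm) after 6 h.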

[7] = system: caspase-3/7 activity in Hep3B cell line; assay: One-step cellular caspase-3/7 activity assay; format: cell-based, human; details: 24 hours, 0 nM = 1.00
In short: as §3

T1 sequence (Q00535 whole entry): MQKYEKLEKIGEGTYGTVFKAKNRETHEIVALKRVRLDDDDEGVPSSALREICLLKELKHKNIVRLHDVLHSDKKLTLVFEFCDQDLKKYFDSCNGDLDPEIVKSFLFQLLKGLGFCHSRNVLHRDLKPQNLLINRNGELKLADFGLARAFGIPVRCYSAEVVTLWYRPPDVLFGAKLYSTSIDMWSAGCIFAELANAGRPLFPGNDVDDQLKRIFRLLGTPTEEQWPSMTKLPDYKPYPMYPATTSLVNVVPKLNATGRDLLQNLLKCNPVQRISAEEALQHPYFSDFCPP
T1 sequence (Q15078 whole entry partner): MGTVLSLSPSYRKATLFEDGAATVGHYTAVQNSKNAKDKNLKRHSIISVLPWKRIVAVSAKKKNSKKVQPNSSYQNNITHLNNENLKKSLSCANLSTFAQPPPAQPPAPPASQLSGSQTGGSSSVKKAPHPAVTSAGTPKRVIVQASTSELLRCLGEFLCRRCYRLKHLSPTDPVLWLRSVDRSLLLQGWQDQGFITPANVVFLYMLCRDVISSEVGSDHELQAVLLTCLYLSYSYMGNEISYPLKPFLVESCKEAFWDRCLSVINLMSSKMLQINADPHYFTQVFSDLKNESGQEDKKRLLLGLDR
T3 sequence (P50613 whole entry): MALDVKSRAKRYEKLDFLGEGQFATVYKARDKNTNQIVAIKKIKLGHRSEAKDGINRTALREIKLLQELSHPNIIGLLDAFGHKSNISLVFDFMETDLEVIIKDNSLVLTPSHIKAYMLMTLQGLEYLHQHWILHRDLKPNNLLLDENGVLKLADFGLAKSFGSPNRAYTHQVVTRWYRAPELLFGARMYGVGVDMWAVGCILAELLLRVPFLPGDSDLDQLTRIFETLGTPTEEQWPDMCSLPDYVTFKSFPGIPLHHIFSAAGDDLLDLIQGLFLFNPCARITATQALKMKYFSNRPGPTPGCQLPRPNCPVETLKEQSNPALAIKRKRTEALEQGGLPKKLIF
T3 sequence (P51946 whole entry partner): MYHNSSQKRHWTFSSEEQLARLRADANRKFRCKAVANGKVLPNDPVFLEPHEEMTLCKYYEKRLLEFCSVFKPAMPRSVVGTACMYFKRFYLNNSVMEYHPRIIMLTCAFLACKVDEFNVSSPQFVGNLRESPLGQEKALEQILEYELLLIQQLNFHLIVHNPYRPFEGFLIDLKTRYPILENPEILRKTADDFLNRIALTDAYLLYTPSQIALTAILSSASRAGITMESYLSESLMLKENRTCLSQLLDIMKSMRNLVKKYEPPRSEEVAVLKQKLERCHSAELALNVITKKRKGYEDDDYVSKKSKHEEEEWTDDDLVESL
T3 sequence (P51948 whole entry partner): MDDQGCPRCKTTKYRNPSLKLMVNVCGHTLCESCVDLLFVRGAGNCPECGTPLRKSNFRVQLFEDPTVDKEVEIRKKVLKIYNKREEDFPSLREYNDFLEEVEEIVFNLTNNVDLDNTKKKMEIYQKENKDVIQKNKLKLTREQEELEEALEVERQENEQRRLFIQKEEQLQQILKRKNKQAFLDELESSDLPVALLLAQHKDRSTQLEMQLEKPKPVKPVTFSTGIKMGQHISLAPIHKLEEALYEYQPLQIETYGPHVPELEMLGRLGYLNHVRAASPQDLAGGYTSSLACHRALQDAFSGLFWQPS
T2 sequence (P50750 whole entry): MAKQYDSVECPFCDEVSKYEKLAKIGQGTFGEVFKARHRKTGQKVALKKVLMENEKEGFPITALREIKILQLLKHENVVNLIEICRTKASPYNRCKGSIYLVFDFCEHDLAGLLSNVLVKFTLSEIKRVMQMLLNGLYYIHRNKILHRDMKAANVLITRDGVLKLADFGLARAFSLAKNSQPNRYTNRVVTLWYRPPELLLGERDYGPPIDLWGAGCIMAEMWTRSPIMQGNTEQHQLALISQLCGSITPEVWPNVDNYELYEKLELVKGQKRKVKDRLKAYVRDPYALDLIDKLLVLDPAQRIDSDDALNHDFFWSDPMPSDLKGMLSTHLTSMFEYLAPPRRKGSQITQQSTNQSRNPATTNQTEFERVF
T2 sequence (O60563 whole entry partner): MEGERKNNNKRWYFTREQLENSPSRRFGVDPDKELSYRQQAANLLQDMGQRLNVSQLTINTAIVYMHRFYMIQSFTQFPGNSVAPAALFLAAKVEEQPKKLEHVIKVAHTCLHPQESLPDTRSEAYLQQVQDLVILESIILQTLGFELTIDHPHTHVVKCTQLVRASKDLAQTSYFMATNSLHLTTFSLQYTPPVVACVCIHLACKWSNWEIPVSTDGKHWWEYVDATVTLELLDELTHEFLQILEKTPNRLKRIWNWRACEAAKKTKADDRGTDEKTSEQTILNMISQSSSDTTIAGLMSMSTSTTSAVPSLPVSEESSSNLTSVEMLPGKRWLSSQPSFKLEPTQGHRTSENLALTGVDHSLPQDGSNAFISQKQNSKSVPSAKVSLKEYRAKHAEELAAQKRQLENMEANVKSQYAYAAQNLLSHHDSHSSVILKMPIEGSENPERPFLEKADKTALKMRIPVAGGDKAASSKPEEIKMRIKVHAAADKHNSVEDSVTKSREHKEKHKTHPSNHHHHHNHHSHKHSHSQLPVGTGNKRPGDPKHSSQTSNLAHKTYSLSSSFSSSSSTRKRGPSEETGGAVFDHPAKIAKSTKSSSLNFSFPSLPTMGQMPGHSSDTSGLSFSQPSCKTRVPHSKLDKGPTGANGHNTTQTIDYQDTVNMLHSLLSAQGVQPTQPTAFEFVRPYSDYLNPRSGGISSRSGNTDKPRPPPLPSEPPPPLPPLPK

Compound | IC50 [1] | remaining activity at 0.1 µM [2] | remaining activity at 1 µM [2] | remaining activity at 0.1 µM [3] | remaining activity at 1 µM [3] | remaining activity at 0.1 µM [4] | remaining activity at 1 µM [4] | IC50 ([5]; 24 h) | IC50 ([5]; 72 h) | Relative caspase-3/7 activity in PLC/PRF/5 cell line ([6]; compound concentration 40 nM) | Relative caspase-3/7 activity in PLC/PRF/5 cell line ([6]; compound concentration 80 nM) | Relative caspase-3/7 activity in PLC/PRF/5 cell line ([6]; compound concentration 160 nM) | Relative caspase-3/7 activity in PLC/PRF/5 cell line ([6]; compound concentration 320 nM) | Relative caspase-3/7 activity in PLC/PRF/5 cell line ([6]; compound concentration 640 nM) | Relative caspase-3/7 activity in PLC/PRF/5 cell line ([6]; compound concentration 1280 nM) | Relative caspase-3/7 activity in Hep3B cell line ([7]; 200 nM) | Relative caspase-3/7 activity in Hep3B cell line ([7]; 400 nM) | Relative caspase-3/7 activity in Hep3B cell line ([7]; 800 nM) | Relative caspase-3/7 activity in Hep3B cell line ([7]; 1600 nM) | Relative caspase-3/7 activity in Hep3B cell line ([7]; 100 nM) | also measured
COc1ccccc1-c1ccc(CNc2nc(NC3CCC(N)CC3)nc3c2ncn3C2CCCC2)cn1 (centres unmarked) [BP18, N^2-(4-amino-cyclohexyl)-9-cyclopentyl-N^6-[6-(2-methoxy-phenyl)-pyridin-3-ylmethyl]-9H-purine-2,6-diamine] | 233 nM | 49.2% | 23.6% | 32.6% | 1.03% | 54.1% | 24.1% | > 50000 nM | 520 nM | 0.97 | 2.40 | >5.00 | >5.00 | >5.00 | >5.00 | 0.89 | 3.19 | 6.05 | 8.59 |  | 
NC1CCC(Nc2nc(NCc3ccc(-c4ccoc4)nc3)c3ncn(C4CCCC4)c3n2)CC1 (centres unmarked) [BP36, N^2-(4-amino-cyclohexyl)-9-cyclopentyl-N^6-(6-furan-3-yl-pyridin-3-ylmethyl)-9H-purine-2,6-diamine] | 130 nM | 31.9% | 2.95% | 15.4% | 1.68% | 49.1% | 17.3% | 20800 nM | 190 nM | 2.34 | >5.00 | >5.00 | >5.00 | >5.00 | >5.00 | 6.19 | 6.55 | 9.80 | 9.75 | 2.67 | 
NC1CCC(Nc2nc(NCc3ccc(-c4ccco4)nc3)c3ncn(C4CCCC4)c3n2)CC1 (centres unmarked) [BP14, N^2-(4-amino-cyclohexyl)-9-cyclopentyl-N^6-(6-furan-2-yl-pyridin-3-ylmethyl)-9H-purine-2,6-diamine] | 58 nM | 37.8% | 24.8% | 22.3% | 0.73% | 54.8% | 23.9% | > 50000 nM | 50 nM | 1.99 | 2.86 | >5.00 | >5.00 | >5.00 | >5.00 | 3.60 | 6.55 | 9.00 | 9.50 | 0.99 | IC50 ([3]; Table 12, read-out: IC50, CDK9/cyklin T): 7 nM
NC1CCC(Nc2nc(NCc3ccc(-c4cccc(F)c4)nc3)c3ncn(C4CCCC4)c3n2)CC1 (centres unmarked) [BP19, N^2-(4-amino-cyclohexyl)-9-cyclopentyl-N^6-[6-(3-fluoro-phenyl)-pyridin-3-ylmethyl]-9H-purine-2,6-diamine] | 85 nM | 37.7% | 25.6% | 26.6% | 0.83% | 55% | 25% | 21800 nM | 370 nM | 1.78 | 2.39 | >5.00 | >5.00 | >5.00 | >5.00 | 4.82 | 6.60 | 9.80 | 9.45 | 0.90 | 
